Measurements published in patent US6566073B1, “Materials and methods involving conditional retention domains” (Ariad Gene Therapeutics, Inc., priority 1998, dated 2003).

Legend:
[1] = target: T1, F(36M)4-hIn-m3 fusion protein in HT1080 cells (Homo sapiens, UniProt P01308+P62942, F37M/H34D/K53R/L86R/R55K); experiment: Regulated insulin secretion from transiently transfected HT1080 cells (C-peptide ELISA); type: cell-based; settings: increasing concentrations of ligand, 3 hours, FIG. 8
T1 construct: fusion of F(36M) domains to insulin results in a suppression of its secretion; expressed in transfected cells; host or cells: HT1080 cells, transient transfection
Method: A vector driving expression of this F(36M)-insulin fusion protein (F(36M)4-hIn-m3) was transiently transfected into HT1080 cells. For comparison, vectors driving the expression of insulin protein alone, with (hIn-m3) or without (hIn-wt) the three mutations were also transfected. Following overnight incubation of cells in the absence of ligand, the medium was washed away and fresh medium added, without or with increasing concentrations of the monomeric ligand, AP21998. Three hours later, the amount of insulin secreted into the medium was determined by ELISA using an assay that recognizes an epitope within the C-peptide (ALPCO).

[2] = target: T2, F(36M)-hGH fusion protein in HT88 cells (stably transfected HT1080) (Homo sapiens, UniProt P01241+P62942, F37M); experiment: Ligand-dependent hGH secretion from HT88 cells (radioimmunoassay); type: cell-based; settings: FIG. 5A
T2 construct: 4 copies of the F(36M) domain; expressed in transfected cells; host or cells: HT1080 human fibrosarcoma cells, stably transfected pool HT88
Method: A vector driving the expression of this fusion protein, under control of the strong constitutive enhancer from CMV, was transiently transfected into HT1080 cells, a human fibrosarcoma cell line. Following overnight incubation of cells in the absence of ligand, the medium was washed away and fresh medium added, with or without ligand. Two hours later, the amount of hGH secreted into the medium was determined by radioimmunoassay. […] In contrast, in the presence of ligand, the amount of hGH secreted was several hundred-fold greater.
Pools of clones stably transfected with the F(36M)-hGH fusion protein (HT88 pool) were analyzed as described for the transiently transfected cells. […] To determine the constitutive rate of hGH secretion, the amount of hGH secreted in the presence of ligand was measured from cells that had already been exposed to ligand for 15 hours. As shown in lane 3, the constitutive rate of secretion from the HT88 cell line was very similar to the rate of secretion from the HT89 cell line which had been stably transfected with the wild type hGH protein (lane 4). Thus, in the presence of ligand the F(36M) domains have no detectable “retention” activity. […] This steady state level of stored F(36M)-hGH fusion protein can persist for months in the cell line with no apparent toxic effect. […]

F36M-FKBP = F36M-FKBP (Homo sapiens, UniProt P62942, F37M); experiment: Binding of bumped FKBP ligands to F36M-FKBP
Excerpt: (§1) AP21998 and AP22542 are ligands of FKBP that have particular utility for CAD applications, because they bind with high affinity to F36M-FKBP but poorly to the wild-type protein, and are thus anticipated to lead to minimal interactions with the endogenous proteins during in vivo applications. The design and assay of such “bumped” ligands that target a hole created by truncating FKBP residue Phe36 have been described (Clackson et al., Proc. Natl. Acad. Sci. USA 95:10437-10442, 1998).

wild-type FKBP = wild-type FKBP (Homo sapiens, UniProt P62942); experiment: Binding of bumped FKBP ligands to wild-type FKBP
Excerpt: as §1

[3] = target: T3, F(36M)4-hIn-m3 fusion protein in implanted HT101-10p cells (Homo sapiens, UniProt P01308+P62942, F37M/H34D/K53R/L86R/R55K); experiment: Regulated insulin secretion in vivo: serum insulin and glucose in STZ-treated mice implanted with HT101-10p cells; set-up: species or system male nu/nu mice
T3 construct: fusion of F(36M) domains to insulin results in a suppression of its secretion; expressed in transfected cells; host or cells: HT101-10p cells (HT1080 stably transfected), implanted intramuscularly into male nu/nu mice
Method: To test whether this system could be used to regulate secretion of insulin in vivo and effect changes in serum glucose levels, 2×10e7 HT101-10p cells were implanted intramuscularly into male nu/nu mice. HT101-10p cells were generated by stably transfecting HT1080 cells with a vector that drives expression of the F(36M)4-hIn-m3 fusion protein. Mice were made hyperglycemic by treatment 2 days earlier with 300 mg/kg streptozotocin (STZ). […] Approximately 1 hr after cells are implanted, animal received vehicle or the indicated dose of intravenous AP22542 (an analog of AP21998). Two hours later, serum samples were collected and assayed for insulin (Ultrasensitive human insulin-specific RIA, Linco) and glucose (Sigma) concentrations. […] In contrast, in animals treated with 10 mg/kg AP22542, serum insulin levels increase to ˜200 pM and serum glucose levels decline to ˜75 mg/dl.
To examine the kinetics of this ligand-induced reduction in serum glucose, STZ-treated mice implanted with 2×10e7 HT101-10p cells were administered a single dose of 30 mg/kg AP22542 intravenously. Serum glucose levels were measured at various times between 5 minutes and 10 hours later. […] This effect is transient as serum glucose levels rise to 350 mg/dl within 5 hours and return to baseline between 6 and 10 hours later. Since insulin secretion is dependent on the presence of the drug, administration of lower doses of AP22542 or of a ligand with a shorter half life should result in an even more transient production of secreted protein and resulting physiological effect. Conversely, administration of higher doses of AP22542 or of a ligand with a longer half life should result in a more prolonged production of secreted protein.

[4] = 1 mg/kg intravenous, 2 hours after dose, hyperglycemic mice

T3 sequence (P62942+P01308 fused P62942:F37M/P01308:H34D/P01308:K53R/P01308:R55K/P01308:L86R): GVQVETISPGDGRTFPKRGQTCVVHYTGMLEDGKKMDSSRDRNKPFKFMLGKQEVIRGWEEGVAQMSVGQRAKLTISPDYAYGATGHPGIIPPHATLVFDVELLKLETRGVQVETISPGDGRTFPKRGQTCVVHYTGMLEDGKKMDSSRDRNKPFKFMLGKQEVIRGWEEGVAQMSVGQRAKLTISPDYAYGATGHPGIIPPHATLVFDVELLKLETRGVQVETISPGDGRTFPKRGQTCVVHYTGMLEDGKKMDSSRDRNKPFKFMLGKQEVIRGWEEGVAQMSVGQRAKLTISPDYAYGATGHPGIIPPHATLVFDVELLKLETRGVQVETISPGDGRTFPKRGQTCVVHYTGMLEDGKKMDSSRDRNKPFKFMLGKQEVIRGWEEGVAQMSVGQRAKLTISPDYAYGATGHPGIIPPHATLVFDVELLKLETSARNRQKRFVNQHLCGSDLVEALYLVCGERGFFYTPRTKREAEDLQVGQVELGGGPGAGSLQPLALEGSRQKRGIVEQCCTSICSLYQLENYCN
Chain of wild-type FKBP (P62942 whole entry): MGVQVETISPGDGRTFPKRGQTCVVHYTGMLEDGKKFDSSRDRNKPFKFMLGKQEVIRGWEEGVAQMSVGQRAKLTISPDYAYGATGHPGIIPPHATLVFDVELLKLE
T2 sequence (P62942+P01241 fused P62942:F37M): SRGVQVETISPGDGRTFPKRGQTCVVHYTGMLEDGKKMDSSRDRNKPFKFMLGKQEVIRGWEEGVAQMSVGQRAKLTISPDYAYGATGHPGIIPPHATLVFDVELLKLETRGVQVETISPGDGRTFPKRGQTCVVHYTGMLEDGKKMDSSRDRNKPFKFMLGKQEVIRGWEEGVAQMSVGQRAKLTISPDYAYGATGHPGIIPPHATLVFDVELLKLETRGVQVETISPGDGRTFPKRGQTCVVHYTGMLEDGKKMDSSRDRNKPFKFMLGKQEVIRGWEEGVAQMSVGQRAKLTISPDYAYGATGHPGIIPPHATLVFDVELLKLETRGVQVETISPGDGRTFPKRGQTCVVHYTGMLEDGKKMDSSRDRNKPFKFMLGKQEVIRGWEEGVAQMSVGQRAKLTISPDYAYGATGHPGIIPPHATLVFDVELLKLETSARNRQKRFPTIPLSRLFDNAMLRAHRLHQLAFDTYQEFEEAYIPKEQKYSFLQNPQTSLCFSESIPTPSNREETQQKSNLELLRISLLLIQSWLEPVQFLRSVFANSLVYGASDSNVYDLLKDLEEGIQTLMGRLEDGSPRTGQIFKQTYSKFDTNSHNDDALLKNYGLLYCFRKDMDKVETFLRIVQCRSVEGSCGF
Chain of F36M-FKBP (P62942 whole entry F37M, the tested form may be a part): as the sequence (P62942 whole entry) above, with F37M counted along it
T1 sequence (P62942+P01308 fused P62942:F37M/P01308:H34D/P01308:K53R/P01308:R55K/P01308:L86R): as the sequence (P62942+P01308 fused P62942:F37M/P01308:H34D/P01308:K53R/P01308:R55K/P01308:L86R) above

concentration giving peak level of hGH secretion [2] [µM] | EC50 ([2]; read-out: half-maximal secretion of hGH) [nM] | binding to F36M-FKBP (F36M-FKBP) | binding to the wild-type protein (wild-type FKBP) | serum glucose [3, 4] | serum insulin levels ([3]; 10 mg/kg intravenous, 2 hours after dose) [pM] | serum glucose levels ([3]; 10 mg/kg intravenous, 2 hours after dose, STZ baseline ~350 mg/dl) [mg/dL] | serum glucose levels ([3]; 30 mg/kg intravenous single dose, by two hours, initial levels nearly 500 mg/dl) [mg/dL] | serum glucose ([3]; 30 mg/kg intravenous single dose, within 30 minutes) | serum glucose levels ([3]; 30 mg/kg intravenous single dose, within 5 hours) [mg/dL] | SMILES | insulin secretion into medium [1] | serum insulin levels [3, 4] | serum glucose levels ([3]; 30 mg/kg intravenous single dose, 5 and 15 minutes after administration)
2 to 3 | 600 | high affinity | poorly | – | – | – | – | – | – | CC[C@H](C(=O)N1CCCCC1C(=O)O[C@H](CCc1ccc(OC)c(OC)c1)c1cccc(OCC(=O)NCCCN(C)C)c1)c1cc(OC)c(OC)c(OC)c1 (stereo partly drawn) [AP21998] | secretion is induced in the presence of monomer in a dose-dependent manner | – | –
– | – | high affinity | poorly | no change in serum glucose | ~200 | ~75 | 50 | significant reduction in serum glucose | 350 | CC[C@H](C(=O)N1CCCC[C@H]1C(=O)O[C@H](CCc1ccc(OC)c(OC)c1)c1cccnc1)c1cc(OC)c(OC)c(OC)c1 [AP22542, 1-[2(S)-(3,4,5-trimethoxyphenyl)-butyryl]-piperdine-2(S)-carboxylic acid, 3-(3,4-Dimethoxyphenyl)-1-pyridin-3-yl-propan-1(R)-ol ester] | – | fails to increase serum insulin levels above the lower limit of detection | indistinguishable from animals treated with vehicle
